{"source": "paper PMC8038090", "about": "“Xanthine Oxidase Inhibitors from Filipendula ulmaria (L.) Maxim. and Their Efficient Detections by HPTLC and HPLC Analyses” (Molecules, 2021)", "key": {"xanthine oxidase (XO) [1]": {"test_system": "xanthine oxidase (XO)", "assay": "HPTLC xanthine oxidase bioautography (NBT/formazan)", "type": "biochemical", "settings": "for XO inhibitory activity on HPTLC bioautography plate (spot intensity): white/yellow spots on purple background, 1 mg/mL, 20 µL applied", "procedure": "As the spectrophotometer analysis monitors the production of uric acid from xanthine, the HPTLC method measures the production of the superoxide radical anion formed during the regeneration of an enzyme. In contact with superoxide radical anion, the Nitro Blue Tetrazolium (NBT) is transformed in formazan (purple), inducing a change in the color of the reaction mixture. The inhibitors will appear as white/yellow spots under a purple background.\nThe samples were prepared by dissolving 1 mg of each fraction in 1 mL of methanol, and 20 µL was applied on 8 mm bands, 8 mm from the lower edge of the plate. The mobile phase was a mixture of ethyl acetate, dichloromethane, formic acid, acetic acid, and water (100:25:10:10:11). […] After development, plates were dried under a stream of cool air for 10 min.\nThe XO inhibition assay was conducted using the method developed by Ramallo [32], with slight modifications. After migration, the plates were dipped into a solution of PBS 120 mM containing xanthine oxidase (0.1 U/mL), EDTA (1 mM), and NBT (1 mM) in a sterilizer, at 37 °C in the dark for 30 min. The plates were then dipped into a solution of PBS 120 mM containing xanthine (1.5 mM) in a sterilizer, at 37 °C for 30 min in the dark."}, "[2]": {"assay": "Solubility for the XO assay", "type": "physicochemical", "settings": "in water or DMSO"}, "xanthine oxidase (XO) [3]": {"biological_target": "xanthine oxidase (XO)", "design": "method as in doi:10.5539/jfr.v1n3p257, doi:10.1016/j.bjp.2015.08.013", "settings": "described to possess no inhibitory activity; read-out: IC50, XO inhibition (described); cited from earlier work"}, "xanthine oxidase (XO) [4]": {"biological_target": "xanthine oxidase (XO) (Bos taurus, UniProt P80457)", "sequence (P80457 2-1332 limits assumed)": "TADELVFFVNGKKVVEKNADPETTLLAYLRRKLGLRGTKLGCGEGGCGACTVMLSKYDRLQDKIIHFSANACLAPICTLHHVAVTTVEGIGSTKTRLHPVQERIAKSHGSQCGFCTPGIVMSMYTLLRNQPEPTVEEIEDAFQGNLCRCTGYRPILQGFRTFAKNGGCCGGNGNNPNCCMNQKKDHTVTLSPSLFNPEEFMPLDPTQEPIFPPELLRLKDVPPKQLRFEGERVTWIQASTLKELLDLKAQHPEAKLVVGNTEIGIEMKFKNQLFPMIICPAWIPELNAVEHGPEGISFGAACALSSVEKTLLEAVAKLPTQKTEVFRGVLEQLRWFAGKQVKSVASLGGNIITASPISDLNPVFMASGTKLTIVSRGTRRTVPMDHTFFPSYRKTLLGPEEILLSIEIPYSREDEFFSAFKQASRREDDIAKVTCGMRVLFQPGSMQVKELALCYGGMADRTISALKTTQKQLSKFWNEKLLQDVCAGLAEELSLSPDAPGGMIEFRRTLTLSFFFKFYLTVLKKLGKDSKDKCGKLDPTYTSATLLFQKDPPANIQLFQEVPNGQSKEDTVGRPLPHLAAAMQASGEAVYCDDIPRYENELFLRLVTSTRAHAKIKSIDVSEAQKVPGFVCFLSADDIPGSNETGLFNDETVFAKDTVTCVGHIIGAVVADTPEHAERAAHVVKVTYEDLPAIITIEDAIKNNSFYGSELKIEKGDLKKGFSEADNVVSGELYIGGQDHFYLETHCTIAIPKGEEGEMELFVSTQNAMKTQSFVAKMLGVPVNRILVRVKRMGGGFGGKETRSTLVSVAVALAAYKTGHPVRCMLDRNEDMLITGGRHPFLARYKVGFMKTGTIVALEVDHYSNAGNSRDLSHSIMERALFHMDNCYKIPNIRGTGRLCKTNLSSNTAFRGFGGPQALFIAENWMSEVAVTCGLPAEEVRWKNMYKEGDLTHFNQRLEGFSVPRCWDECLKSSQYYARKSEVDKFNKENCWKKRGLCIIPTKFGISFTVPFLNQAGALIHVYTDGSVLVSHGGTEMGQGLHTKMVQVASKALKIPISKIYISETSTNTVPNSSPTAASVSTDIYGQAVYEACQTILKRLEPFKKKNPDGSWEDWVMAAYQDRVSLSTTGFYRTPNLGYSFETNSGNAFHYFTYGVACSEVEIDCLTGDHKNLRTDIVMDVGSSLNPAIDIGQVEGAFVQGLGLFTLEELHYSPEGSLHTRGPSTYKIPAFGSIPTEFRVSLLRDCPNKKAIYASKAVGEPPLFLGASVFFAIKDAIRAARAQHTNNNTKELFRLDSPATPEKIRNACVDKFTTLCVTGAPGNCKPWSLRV", "assay": "Xanthine oxidase inhibitory activity by UV spectroscopy (uric acid formation at 293 nm)", "type": "biochemical", "procedure": "Inhibition of XO was conducted according to the procedure described by Sowndhararajan et al., with slight modifications. […] Prior to the addition of XO solution in the mixture, all the components were incubated at 25 °C in the dark for 5 min. […] The enzymatic activity assay without extract was defined as maximum relative activity, and the percentage of inhibition was calculated according to the method of Yan et al. IC50 values were determined using linear regression and are expressed in µg/mL of plant extract ± standard deviation. All measurements were performed in triplicate (n = 3)."}, "xanthine oxidase (XO) [5]": {"test_system": "xanthine oxidase (XO)", "assay": "Measurement of XO interaction by HPLC (crude extract incubated with and without enzyme)", "type": "binding", "settings": "crude extract 1 mg/mL, XO 0.1 U/mL, 1 h; for Interaction with XO (HPLC subtraction, negative peaks): HPLC-UV 254 nm; for XO binding (%): estimated from difference of peak area with and without XO", "procedure": "The identification of bioactive compounds which form in a complex mixture by rapid screening, without the requirement of purification, is a challenging approach. […] Based on the method described by Wang, we incubated the enzyme with the crude extract and carried out HPLC analyses on the filtrate after centrifugation.\nThe measurement of XO interaction was conducted according to Zhang’s procedure, with some modifications. The assay mixture contained 10 mL of crude extract at 1 mg/mL in water, and 200 µL of xanthine oxidase (final concentration of 0.1 U/mL), or 200 µL of water. Prior to the HPLC analysis, the solution was mixed for one hour at room temperature in the dark. After one hour, the mixture was centrifuged at 4500× g […] and supernatant was filtered through a 0.45 µm PTFE filter. […] Potential inhibitors were identified after subtraction of the chromatogram obtained from the assay with and without XO (negative peaks)."}, "[6]": {"assay": "Stability in solution for the XO assay", "type": "physicochemical"}, "[7]": {"settings": "UV spectroscopy, xanthine 56 µM, XO 0.01 U/mL, 25 °C, n = 3, read-out: IC50 (µg/mL), XO inhibition (converted)"}, "[8]": {"settings": "UV spectroscopy, xanthine 56 µM, XO 0.01 U/mL, 25 °C, n = 3, read-out: IC50 (µM), XO inhibition"}}, "note": "“Also recorded” adds a separate entry of the source. Like-named read-outs stand apart in the source and are kept apart here."}
{"smiles": "O=c1oc2c(O)c(O)cc3c(=O)oc4c(O)c(O)cc1c4c23", "note": "[Ellagic acid]", "values": [{"measurement": "Stability on the HPTLC plate", "setting": "xanthine oxidase (XO) [1]", "value": "decompose on the plate"}, {"measurement": "XO inhibitory activity on HPTLC bioautography plate (spot intensity)", "setting": "xanthine oxidase (XO) [1]", "value": "weak activity"}, {"measurement": "Solubility", "setting": "[2]", "value": "not soluble"}]}
{"smiles": "O=C(O)c1cc(O)c(O)c(O)c1", "note": "[Gallic acid]", "values": [{"measurement": "IC50", "setting": "xanthine oxidase (XO) [3]", "value": "> 100", "unit": "µM"}, {"measurement": "IC50", "setting": "xanthine oxidase (XO) [4]", "value": "> 50", "unit": "µM"}, {"measurement": "IC50", "setting": "xanthine oxidase (XO) [4]; [7]", "value": "> 1760", "unit": "µM"}]}
{"smiles": "O=c1c(O[C@@H]2O[C@H](CO)[C@H](O)[C@H](O)[C@H]2O)c(-c2ccc(O)c(O)c2)oc2cc(O)cc(O)c12", "note": "[Hyperoside]", "values": [{"measurement": "XO inhibitory activity on HPTLC bioautography plate (spot intensity)", "setting": "xanthine oxidase (XO) [1]", "value": "weak interactions"}, {"measurement": "IC50", "setting": "xanthine oxidase (XO) [4]; [8]", "value": "> 50", "unit": "µM"}, {"measurement": "IC50", "setting": "xanthine oxidase (XO) [4]; [7]", "value": "> 215", "unit": "µM"}, {"measurement": "Interaction with XO (HPLC subtraction, negative peaks)", "setting": "xanthine oxidase (XO) [5]", "value": "did not seem to interact"}]}
{"smiles": "O=c1c(O[C@@H]2O[C@H](CO)[C@@H](O)[C@H](O)[C@H]2O)c(-c2ccc(O)c(O)c2)oc2cc(O)cc(O)c12", "note": "[Isoquercitrin]", "values": [{"measurement": "XO inhibitory activity on HPTLC bioautography plate (spot intensity)", "setting": "xanthine oxidase (XO) [1]", "value": "weak interactions"}, {"measurement": "IC50", "setting": "xanthine oxidase (XO) [4]; [8]", "value": "> 50", "unit": "µM"}, {"measurement": "IC50", "setting": "xanthine oxidase (XO) [4]; [7]", "value": "> 215", "unit": "µM"}, {"measurement": "Interaction with XO (HPLC subtraction, negative peaks)", "setting": "xanthine oxidase (XO) [5]", "value": "did not seem to interact"}]}
{"smiles": "O=c1c(O)c(-c2ccc(O[C@@H]3O[C@H](CO)[C@@H](O)[C@H](O)[C@H]3O)cc2)oc2cc(O)cc(O)c12", "note": "[Kaempferol-4′-O-glucoside]", "values": [{"measurement": "Interaction with XO (HPLC subtraction, negative peaks)", "setting": "xanthine oxidase (XO) [5]", "value": "significant interactions"}]}
{"smiles": "O=c1c(O)c(-c2ccc(O)cc2)oc2cc(O)cc(O)c12", "note": "[Kaempferol]", "values": [{"measurement": "XO inhibitory activity on HPTLC bioautography plate (spot intensity)", "setting": "xanthine oxidase (XO) [1]", "value": "quite strong inhibitors; also recorded: strong interactions"}, {"measurement": "Interaction with XO (HPLC subtraction, negative peaks)", "setting": "xanthine oxidase (XO) [5]", "value": "seem to interact"}]}
{"smiles": "O=c1c(O)c(-c2ccc(O)c(O)c2)oc2cc(O)cc(O)c12", "note": "[Quercetin]", "values": [{"measurement": "XO inhibitory activity on HPTLC bioautography plate (spot intensity)", "setting": "xanthine oxidase (XO) [1]", "value": "quite strong inhibitors; also recorded: strong interactions"}, {"measurement": "Interaction with XO (HPLC subtraction, negative peaks)", "setting": "xanthine oxidase (XO) [5]", "value": "seem to interact"}, {"measurement": "XO binding (%)", "setting": "xanthine oxidase (XO) [5]", "value": "~50", "unit": "%"}]}
{"smiles": "O=C(O[C@@H]1O[C@@H]2COC(=O)c3cc(Oc4c(C(=O)O[C@@H]5O[C@@H]6COC(=O)c7cc(O)c(O)c(O)c7-c7c(cc(O)c(O)c7O)C(=O)O[C@H]6[C@H](OC(=O)c6cc(O)c(O)c(O)c6)[C@H]5OC(=O)c5cc(O)c(O)c(O)c5)cc(O)c(O)c4O)c(O)c(O)c3-c3c(cc(O)c(O)c3O)C(=O)O[C@H]2[C@H](OC(=O)c2cc(O)c(O)c(O)c2)[C@H]1OC(=O)c1cc(O)c(O)c(O)c1)c1cc(O)c(O)c(O)c1", "note": "[Rugosin D]", "values": [{"measurement": "XO inhibitory activity on HPTLC bioautography plate (spot intensity)", "setting": "xanthine oxidase (XO) [1]", "value": "strong interactions"}, {"measurement": "IC50 (µg/mL), XO inhibition", "setting": "xanthine oxidase (XO) [4]; UV spectroscopy, xanthine 56 µM, XO 0.01 U/mL, 25 °C, n = 3", "value": "67.0 ± 1.1", "unit": "µg/mL"}, {"measurement": "IC50", "setting": "xanthine oxidase (XO) [4]; [8]", "value": "35.7 ± 2.1", "unit": "µM"}, {"measurement": "Interaction with XO (HPLC subtraction, negative peaks)", "setting": "xanthine oxidase (XO) [5]", "value": "strongest interaction"}, {"measurement": "XO binding (%)", "setting": "xanthine oxidase (XO) [5]", "value": "around 60%"}]}
{"smiles": "O=C(O)c1ccccc1O", "note": "[Salicylic acid]", "values": [{"measurement": "IC50", "setting": "xanthine oxidase (XO) [3]", "value": "> 100", "unit": "µM"}, {"measurement": "IC50", "setting": "xanthine oxidase (XO) [4]; [8]", "value": "> 50", "unit": "µM"}, {"measurement": "IC50", "setting": "xanthine oxidase (XO) [4]; [7]", "value": "> 2170", "unit": "µM"}]}
{"smiles": "O=c1c(O)c(-c2ccc(O[C@@H]3O[C@H](CO)[C@@H](O)[C@H](O)[C@H]3O)c(O)c2)oc2cc(O)cc(O)c12", "note": "[Spiraeoside]", "values": [{"measurement": "XO inhibitory activity on HPTLC bioautography plate (spot intensity)", "setting": "xanthine oxidase (XO) [1]", "value": "quite strong inhibitors; also recorded: strong interactions"}, {"measurement": "IC50", "setting": "xanthine oxidase (XO) [4]; [8]", "value": "0.66 ± 0.02", "unit": "µM"}, {"measurement": "IC50", "setting": "xanthine oxidase (XO) [4]; [7]", "value": 0.668, "unit": "µM"}, {"measurement": "XO inhibitory activity relative to allopurinol", "setting": "xanthine oxidase (XO) [4]; activity higher than allopurinol", "value": "around 25 times"}, {"measurement": "Interaction with XO (HPLC subtraction, negative peaks)", "setting": "xanthine oxidase (XO) [5]", "value": "significant interactions"}, {"measurement": "XO binding (%)", "setting": "xanthine oxidase (XO) [5]", "value": "around 30%"}]}
{"smiles": "O=C(OC1O[C@@H]2COC(=O)c3cc(O)c(O)c(O)c3-c3c(cc(O)c(O)c3O)C(=O)O[C@H]2[C@H](OC(=O)c2cc(O)c(O)c(O)c2)[C@H]1OC(=O)c1cc(O)c(O)c(O)c1)c1cc(O)c(O)c(O)c1", "note": "(stereo partly drawn) [Tellimagrandin II]", "values": [{"measurement": "Stability on the HPTLC plate", "setting": "xanthine oxidase (XO) [1]", "value": "decompose on the plate"}, {"measurement": "XO inhibitory activity on HPTLC bioautography plate (spot intensity)", "setting": "xanthine oxidase (XO) [1]", "value": "weak activity"}, {"measurement": "Stability in solution", "setting": "[6]", "value": "decomposed in the solution"}, {"measurement": "Interaction with XO (HPLC subtraction, negative peaks)", "setting": "xanthine oxidase (XO) [5]", "value": "strongest interaction"}, {"measurement": "XO binding (%)", "setting": "xanthine oxidase (XO) [5]", "value": "around 30%"}]}
